Test results from patent publication US20240226130A1, “4'-THIONUCLEOSIDE ANALOGUES AND THEIR PHARMACEUTICAL USE” (Gilead Sciences, Inc., priority 2022, published 2024).

Legend:
DNA polymerase γ = DNA polymerase γ (Homo sapiens (Human), UniProt P54098); assay: DNA polymerase γ single nucleotide incorporation (SNI) rate assay; type: biochemical; settings: incorporation rate as a percentage relative to the corresponding natural dNTP; 50 μM analog
Experimental: Example 12: DNA Polymerase γ Single Nucleotide Incorporation (SNI) Rate Assay
The DNA polymerase (pol) γ SNI assay utilized an annealed ^32P labeled primer-template complex of D19 [5′-G TCC CTG TTC GGG CGC CAC-3′] and D36 A/G/T/C [3′-CGACCGTCCAGGGACAAGCCCGCG (TGT/CGT/ACG/GCG) ATC TCT-5′] where the templating base was chosen to base pair to the natural dNTP and analogs assayed. 20 nM DNA pol γ large subunit and 100 nM pol γ accessory subunit were preincubated on ice for 5 minutes and added to reaction mix containing 50 mM Tris-Cl pH 8.0, 5 mM DTT, 0.2 mg/mL bSA, 200 nM D19/D36 mer and 10 mM MgCl2. […] The substrate and the incorporation products, D19 and D20-28, were quantified using a Typhoon Trio Imager and Image Quant TL Software. The nucleotide incorporation rate was calculated in Prism by fitting the product formation using the single exponential equation: [D20]=A*(1−e−k*t), where [D20] represents the amount (in nM) of the elongated product formed, t represents the reaction time, k represents the observed rate, and A represents the amplitude of the exponential. […]

DNA polymerase α = DNA polymerase α (Homo sapiens (Human), UniProt P09884); assay: DNA polymerase α single nucleotide incorporation (SNI) rate assay; type: biochemical; settings: incorporation rate as a percentage relative to the corresponding natural dNTP; 50 μM analog
DNA polymerase α, sequence (P09884 whole entry): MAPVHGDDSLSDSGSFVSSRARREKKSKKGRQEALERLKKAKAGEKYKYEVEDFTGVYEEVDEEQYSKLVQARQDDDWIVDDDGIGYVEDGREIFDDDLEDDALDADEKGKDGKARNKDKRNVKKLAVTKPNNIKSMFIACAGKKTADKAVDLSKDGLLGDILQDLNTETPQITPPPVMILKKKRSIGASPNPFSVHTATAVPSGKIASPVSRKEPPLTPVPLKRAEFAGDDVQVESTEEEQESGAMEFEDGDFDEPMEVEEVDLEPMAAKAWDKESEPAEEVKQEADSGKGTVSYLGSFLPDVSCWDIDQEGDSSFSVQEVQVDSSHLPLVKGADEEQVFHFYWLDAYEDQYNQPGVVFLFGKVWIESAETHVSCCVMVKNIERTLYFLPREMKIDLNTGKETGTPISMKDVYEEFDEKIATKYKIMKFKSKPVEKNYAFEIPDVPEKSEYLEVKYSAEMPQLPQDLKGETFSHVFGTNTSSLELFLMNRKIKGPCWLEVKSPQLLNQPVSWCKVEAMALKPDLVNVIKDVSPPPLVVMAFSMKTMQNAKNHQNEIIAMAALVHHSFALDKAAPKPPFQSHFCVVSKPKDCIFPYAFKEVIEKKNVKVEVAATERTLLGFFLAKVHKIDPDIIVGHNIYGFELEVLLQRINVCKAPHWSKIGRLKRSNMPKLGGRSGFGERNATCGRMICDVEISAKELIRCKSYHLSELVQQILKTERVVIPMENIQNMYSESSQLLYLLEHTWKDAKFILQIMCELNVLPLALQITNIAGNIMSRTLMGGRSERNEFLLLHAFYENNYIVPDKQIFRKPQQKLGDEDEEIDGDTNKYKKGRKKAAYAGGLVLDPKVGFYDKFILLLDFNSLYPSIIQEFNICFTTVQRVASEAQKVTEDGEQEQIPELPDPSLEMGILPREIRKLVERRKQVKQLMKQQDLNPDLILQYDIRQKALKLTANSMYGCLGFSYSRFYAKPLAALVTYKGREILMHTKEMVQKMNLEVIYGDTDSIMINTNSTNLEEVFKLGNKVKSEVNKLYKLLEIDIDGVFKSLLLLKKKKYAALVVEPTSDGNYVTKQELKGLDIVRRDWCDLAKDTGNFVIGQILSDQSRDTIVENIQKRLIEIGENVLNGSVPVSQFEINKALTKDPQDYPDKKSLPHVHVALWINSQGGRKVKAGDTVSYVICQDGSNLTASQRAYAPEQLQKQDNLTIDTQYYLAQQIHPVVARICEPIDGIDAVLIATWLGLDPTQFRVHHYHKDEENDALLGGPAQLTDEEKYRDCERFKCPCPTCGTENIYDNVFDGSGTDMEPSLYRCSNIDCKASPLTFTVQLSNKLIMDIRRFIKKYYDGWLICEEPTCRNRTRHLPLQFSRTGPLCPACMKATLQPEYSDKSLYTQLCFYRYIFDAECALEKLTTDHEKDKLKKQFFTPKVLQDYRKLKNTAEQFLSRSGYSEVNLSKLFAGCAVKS
Experimental: Example 13: DNA Polymerase a Single Nucleotide Incorporation (SNI) Rate Assay
The DNA polymerase (pol) a SNI assay utilized an annealed ^32P labeled primer-template complex of D19 [5′-G TCC CTG TTC GGG CGC CAC-3′] and D36 A/G/T/C [3′-CGACCGTCCAGGGACAAGCCCGCG (TGT/CGT/ACG/GCG) ATC TCT-5′] where the templating base was chosen to base pair to the natural dNTP and analogs assayed. Reactions containing 50 mM Tris-Cl pH 8.0, 5 mM DTT, 0.2 mg/mL bSA, 200 nM D19/D36 mer and 10 mM MgCl2 and 5 nM DNA pol a were heated to 37° C. and initiated by addition of 50 μM (final) natural dNTP or analogs. At 0, 5, 10, 20, 40, and 60 min, 10 μL of the reaction mixture was removed and quenched with 10 μL of a gel loading buffer containing 100 mM EDTA, 80% formamide and bromophenol blue, and heated at 65° C. for 5 minutes. The samples were run on a 20% polyacrylamide gel (8 M urea) and the gel was exposed to a phosphorimager screen. The substrate and the incorporation products, D19 and D20-28, were quantified using a Typhoon Trio Imager and Image Quant TL Software. The nucleotide incorporation rate was calculated in Prism by fitting the product formation using the single exponential equation: [D20]=A*(1−e−k*t), where [D20] represents the amount (in nM) of the elongated product formed, t represents the reaction time, k represents the observed rate, and A represents the amplitude of the exponential. […]

[1] = Rhesus pharmacokinetic study, intravenous compound 7 (plasma and PBMC); settings: for Intracellular concentration in PBMC: LOQ 2.5 μM compound 7, 0.63 μM triphosphate
Experimental: Male Indian Origin Rhesus Monkeys were used for the pharmacokinetic studies. Studies were conducted under a protocol approved by IACUC. […] The intravenous dose was administered as an approximately 30-minute infusion, and after dose administration the dose apparatus was flushed with approximately 1 mL saline before removal from the animal. Food was returned 4 hours after dosing. […] The K2EDTA tubes were kept chilled at approximately 5° C. until centrifugation (4° C., 5 minutes, 2000×g) to collect plasma. Centrifugation began within 1 hour of collection. Plasma samples were harvested, placed in micronic tubes, and maintained on dry ice prior to storage at −70° C. until analysis by LC-MS/MS. […] The sodium citrate tubes were then gently inverted 3-4 times and stored upright at ambient temperature until centrifugation to collect PBMCs. Centrifugation began as soon as possible following collection, within 6 hours after collection. The PBMCs were separated by centrifugation (30 minutes at 1500×g-1800×g, 18-20° C.), washed once with ice cold 0.9% NaCl and treated with red blood cell lysis buffer (3.5 g ammonium chloride and 0.036 g ammonium carbonate in 500 mL ultrapure water, prepared before first blood collection) for 10 minutes at ambient temperature. Subsequently the cells were washed twice with ice cold 0.9% NaCl, the cell pellet resuspended in ice cold RIPA buffer (fortified with Pierce protease ad phosphatase inhibitor tablet), snap frozen in liquid nitrogen, and maintained at −70° C. until analysis by LC-MS/MS.

[2] = Rhesus pharmacokinetic study, oral compound 7 (plasma and PBMC); settings: for Intracellular concentration in PBMC: LOQ 0.16 μM compound 7, 0.04 μM triphosphate
Experimental: The oral dose was administered via oral gavage, and after dose administration the dose apparatus was flushed with approximately 10 mL water before removal from the animal. Food was returned 4 hours after dosing. […] The K2EDTA tubes were kept chilled at approximately 5° C. until centrifugation (4° C., 5 minutes, 2000×g) to collect plasma. Centrifugation began within 1 hour of collection. Plasma samples were harvested, placed in micronic tubes, and maintained on dry ice prior to storage at −70° C. until analysis by LC-MS/MS. […] The sodium citrate tubes were then gently inverted 3-4 times and stored upright at ambient temperature until centrifugation to collect PBMCs. Centrifugation began as soon as possible following collection, within 6 hours after collection. The PBMCs were separated by centrifugation (30 minutes at 1500×g-1800×g, 18-20° C.), washed once with ice cold 0.9% NaCl and treated with red blood cell lysis buffer (3.5 g ammonium chloride and 0.036 g ammonium carbonate in 500 mL ultrapure water, prepared before first blood collection) for 10 minutes at ambient temperature. Subsequently, the cells were washed twice with ice cold 0.9% NaCl and the cell pellet maintained at −70° C. until analysis by LC-MS/MS.

DNA polymerase γ, sequence (P54098 whole entry, looked up): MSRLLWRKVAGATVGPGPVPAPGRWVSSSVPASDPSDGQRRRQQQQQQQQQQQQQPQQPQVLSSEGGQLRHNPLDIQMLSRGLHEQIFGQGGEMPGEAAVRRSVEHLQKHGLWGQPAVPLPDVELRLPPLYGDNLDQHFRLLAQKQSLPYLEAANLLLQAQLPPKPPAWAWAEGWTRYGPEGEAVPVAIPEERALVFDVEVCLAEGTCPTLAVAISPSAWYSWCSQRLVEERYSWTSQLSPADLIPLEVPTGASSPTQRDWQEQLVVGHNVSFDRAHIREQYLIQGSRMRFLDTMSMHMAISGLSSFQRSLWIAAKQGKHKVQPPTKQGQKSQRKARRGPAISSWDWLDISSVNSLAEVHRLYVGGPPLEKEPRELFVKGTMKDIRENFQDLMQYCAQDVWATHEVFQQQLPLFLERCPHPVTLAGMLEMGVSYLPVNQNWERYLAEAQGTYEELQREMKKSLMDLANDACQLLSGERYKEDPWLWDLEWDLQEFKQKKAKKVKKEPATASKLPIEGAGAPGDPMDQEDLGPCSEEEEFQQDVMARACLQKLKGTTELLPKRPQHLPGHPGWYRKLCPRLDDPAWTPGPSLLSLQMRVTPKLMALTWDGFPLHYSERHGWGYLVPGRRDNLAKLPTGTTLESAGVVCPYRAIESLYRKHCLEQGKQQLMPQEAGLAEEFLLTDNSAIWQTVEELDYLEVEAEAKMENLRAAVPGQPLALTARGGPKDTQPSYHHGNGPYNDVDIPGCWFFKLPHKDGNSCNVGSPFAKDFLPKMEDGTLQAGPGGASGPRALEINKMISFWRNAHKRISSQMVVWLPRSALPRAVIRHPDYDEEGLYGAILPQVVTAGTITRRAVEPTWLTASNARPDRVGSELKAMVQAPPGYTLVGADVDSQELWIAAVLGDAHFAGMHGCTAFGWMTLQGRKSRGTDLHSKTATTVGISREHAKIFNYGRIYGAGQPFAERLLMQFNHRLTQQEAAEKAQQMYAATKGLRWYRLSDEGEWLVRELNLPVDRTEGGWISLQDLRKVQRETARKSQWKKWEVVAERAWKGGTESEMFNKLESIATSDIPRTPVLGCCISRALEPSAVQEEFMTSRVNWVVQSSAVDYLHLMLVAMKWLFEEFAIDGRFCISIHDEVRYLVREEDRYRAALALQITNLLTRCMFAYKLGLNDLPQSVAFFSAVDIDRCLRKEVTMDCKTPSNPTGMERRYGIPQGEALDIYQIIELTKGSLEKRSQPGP
DNA polymerase γ, sequence (Q9UHN1 whole entry partner, looked up): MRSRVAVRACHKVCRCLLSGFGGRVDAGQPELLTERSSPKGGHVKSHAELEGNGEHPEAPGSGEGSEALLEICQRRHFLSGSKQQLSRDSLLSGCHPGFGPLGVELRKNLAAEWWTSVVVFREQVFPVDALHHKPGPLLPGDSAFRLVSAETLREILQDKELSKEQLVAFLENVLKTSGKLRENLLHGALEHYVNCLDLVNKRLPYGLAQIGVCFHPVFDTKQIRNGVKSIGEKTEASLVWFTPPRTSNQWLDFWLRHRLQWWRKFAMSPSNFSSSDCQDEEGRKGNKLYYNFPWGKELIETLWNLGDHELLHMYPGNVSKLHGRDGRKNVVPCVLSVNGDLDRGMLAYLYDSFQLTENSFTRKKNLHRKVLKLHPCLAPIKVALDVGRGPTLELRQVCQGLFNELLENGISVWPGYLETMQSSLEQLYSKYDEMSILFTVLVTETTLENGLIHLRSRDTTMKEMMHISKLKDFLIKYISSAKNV

Hemitriethylamine ((2R,3S,5R)-5-(4-amino-5-fluoro-2-oxopyrimidin-1(2H)-yl)-2-ethynyl-3-hydroxytetrahydrothiophen-2-yl)methyl triphosphate [Compound 8]
DNA Pol γ SNIR (DNA polymerase γ): 1.3 | DNA Pol α SNIR (DNA polymerase α): 2.6 | Intracellular concentration in PBMC ([1]; 12 hr after intravenous 1 mg/kg compound 7): 2.19 ± 0.31 µM | Intracellular concentration in PBMC ([1]; 24 hr after intravenous 1 mg/kg compound 7): 1.34 ± 0.14 µM | Intracellular concentration in PBMC ([1]; 48 hr after intravenous 1 mg/kg compound 7): 0.42 ± 0.06 µM | Intracellular concentration in PBMC ([1]; 72 hr after intravenous 1 mg/kg compound 7): BLQ | Intracellular concentration in PBMC ([1]; 144 hr after intravenous 1 mg/kg compound 7): BLQ | Intracellular concentration in PBMC ([1]; 168 hr after intravenous 1 mg/kg compound 7): BLQ | Calculated half life of triphosphate metabolite ([1]; in PBMC, intravenous 1 mg/kg compound 7): Calculated half life of triphosphate metabolite: 19.8 ± 9.3 hours | Intracellular concentration in PBMC ([2]; 12 hr after oral 7.5 mg/kg compound 7): 1.43 ± 0.45 µM | Intracellular concentration in PBMC ([2]; 24 hr after oral 7.5 mg/kg compound 7): 1.78 ± 0.57 µM | Intracellular concentration in PBMC ([2]; 48 hr after oral 7.5 mg/kg compound 7): 1.15 ± 0.76 µM | Intracellular concentration in PBMC ([2]; 72 hr after oral 7.5 mg/kg compound 7): 0.47 ± 0.22 µM | Intracellular concentration in PBMC ([2]; 120 hr after oral 7.5 mg/kg compound 7): 0.17 ± 0.01 µM | Intracellular concentration in PBMC ([2]; 168 hr after oral 7.5 mg/kg compound 7): 0.09 ± 0.02 µM | Calculated half-life of triphosphate metabolite ([2]; in PBMC, oral 7.5 mg/kg compound 7): Calculated half-life of triphosphate metabolite: 43.1 ± 19.3 hours
